Test results: patent US20080286393A1, “Method for the enrichment of the polyphenolic contents from unripe fruit rinds of Terminalia belerica and uses thereof” (priority 2007, published 2008)

How the values were obtained:
[1] = Oxygen Radical Absorption (or Absorbance) Capacity (ORAC); settings: FIG. 6
Protocol: The antioxidant activity of the light-colored, enriched/concentrated (85%-100%) polyphenolic extract from the dried, unripe fruit rinds of Terminalia belerica was assayed by diphenylpicrylhydrazyl (DPPH), Oxygen Radical Absorption (or Absorbance) Capacity (ORAC) and the hydroxyl radical Absorption (or Absorbance) capacity (HORAC) studies, as per the validated procedures documented in Cosmetics and toiletries. Cosmeceuticals: Jang D I, Lee B J, Jeon C O, Jo N S, Park J H, Cho S Y, Lee H, Koh J S. 1998, J. Agric. Food Chem. (2001), 49, 4619-4626 and J. Agric. Food. […] The ORAC value of the light-colored, enriched/concentrated (85%-100%) polyphenolic extract from the dried, unripe fruit rinds of Terminalia belerica was 6237±640 μMol trolox equivalents/gram while the ORAC value of Vitamin C was 3400 μMol trolox equivalents/gram and that of grape seed extract was 4528 μMol trolox equivalents/gram.

[2] = Anti-oxidant activity: DPPH scavenging; settings: FIG. 5
Protocol: The antioxidant activity of the light-colored, enriched/concentrated (85%-100%) polyphenolic extract from the dried, unripe fruit rinds of Terminalia belerica was assayed by diphenylpicrylhydrazyl (DPPH), Oxygen Radical Absorption (or Absorbance) Capacity (ORAC) and the hydroxyl radical Absorption (or Absorbance) capacity (HORAC) studies, as per the validated procedures documented in Cosmetics and toiletries. Cosmeceuticals: Jang D I, Lee B J, Jeon C O, Jo N S, Park J H, Cho S Y, Lee H, Koh J S. 1998, J. Agric. Food Chem. (2001), 49, 4619-4626 and J. Agric. Food. Chem. (2002), 50, 2772-2777.)

**Q.** With `O=C1O[C@H]([C@@H](O)CO)C(O)=C1O` [Vitamin C] as the compound, how does the ORAC value [1] read?
**A.** The ORAC value was 3400 μMol trolox equivalents/gram.

**Q.** And the SC50 scavenging activity [2]?
**A.** The SC50 scavenging activity was 1.9 µg/mL.

**Q.** With `Cc1cc(C(C)(C)C)c(O)c(C(C)(C)C)c1` [BHT, Butylated hydroxyl toluene] as the compound, how does the SC50 scavenging activity [2] read?
**A.** Its SC50 scavenging activity is 4.6 µg/mL.
